Measured values published in ChEMBL document CHEMBL4304761, “Alkylsulfonamide-containing quinazoline derivatives as potent and orally bioavailable PI3Ks inhibitors” (Bioorg Med Chem, 2019).
Calls of active or inactive are those of the source. The rule behind the calls is not given here.

Legend:
[1] = biological target: T1, Phosphatidylinositol 4,5-bisphosphate 3-kinase catalytic subunit alpha isoform (Homo sapiens, UniProt P42336); assay: Inhibition of PI3K alpha (unknown origin) using lipid substrate measured after 40 mins in presence of ATP by Kinase-Glo plus reagent based luminescence assay
MCF7 = assay: Antiproliferative activity against human MCF7 cells harboring PIK3CA mutant E545K measured after 72 hrs by MTT assay; type: functional, cell-based; conditions: MCF7, 72 h
SU-DHL-6 = assay: Antiproliferative activity against human SUDHL6 cells measured after 72 hrs by CCK-8 assay; type: functional, cell-based; conditions: SU-DHL-6, 72 h
HCT-116 [2] = assay: Antiproliferative activity against human HCT116 cells harboring PIK3CA mutant H1047R measured after 72 hrs by MTT assay; type: functional, cell-based; conditions: HCT-116, 72 h
[3] = biological target: T2, Phosphatidylinositol 4,5-bisphosphate 3-kinase catalytic subunit delta isoform (Homo sapiens, UniProt O00329); assay: Inhibition of PI3K delta (unknown origin) using lipid substrate measured after 40 mins in presence of ATP by Kinase-Glo plus reagent based luminescence assay
T2 sequence (O00329 whole entry): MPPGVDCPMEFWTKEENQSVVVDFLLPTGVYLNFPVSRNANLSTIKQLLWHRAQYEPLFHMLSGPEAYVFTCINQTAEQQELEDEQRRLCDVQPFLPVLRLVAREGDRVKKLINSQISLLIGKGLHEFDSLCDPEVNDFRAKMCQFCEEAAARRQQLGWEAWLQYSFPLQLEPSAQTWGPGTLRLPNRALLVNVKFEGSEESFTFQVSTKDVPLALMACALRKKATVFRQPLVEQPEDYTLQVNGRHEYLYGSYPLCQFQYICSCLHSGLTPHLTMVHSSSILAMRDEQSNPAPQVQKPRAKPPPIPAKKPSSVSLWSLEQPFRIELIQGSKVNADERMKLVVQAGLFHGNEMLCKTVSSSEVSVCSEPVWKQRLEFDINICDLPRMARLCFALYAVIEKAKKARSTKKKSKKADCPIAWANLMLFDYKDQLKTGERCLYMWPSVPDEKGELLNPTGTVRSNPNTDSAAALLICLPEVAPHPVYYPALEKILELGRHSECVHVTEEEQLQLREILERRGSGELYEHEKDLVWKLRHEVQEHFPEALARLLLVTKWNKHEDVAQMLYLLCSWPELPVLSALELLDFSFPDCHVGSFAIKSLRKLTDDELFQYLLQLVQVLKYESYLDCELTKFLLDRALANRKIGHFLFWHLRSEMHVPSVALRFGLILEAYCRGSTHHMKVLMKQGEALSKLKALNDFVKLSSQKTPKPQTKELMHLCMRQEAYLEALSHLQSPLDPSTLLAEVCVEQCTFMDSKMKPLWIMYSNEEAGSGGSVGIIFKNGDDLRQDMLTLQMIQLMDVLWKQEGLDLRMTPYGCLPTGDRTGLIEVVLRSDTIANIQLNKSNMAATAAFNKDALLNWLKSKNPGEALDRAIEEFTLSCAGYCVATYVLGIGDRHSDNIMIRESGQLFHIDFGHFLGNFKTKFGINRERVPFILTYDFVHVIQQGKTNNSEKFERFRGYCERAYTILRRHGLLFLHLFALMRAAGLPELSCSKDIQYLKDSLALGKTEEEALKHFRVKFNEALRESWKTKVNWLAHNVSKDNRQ

HCT-116 [4] = assay: Antitumour activity against human HCT116 cells xenografted in BALB/c nude mouse assessed as tumour weight at 5 mg/kg, po via gavage administered once daily for 15 days and measure every three days by caliper method (reference value: 3.2 +/- 0.32 g); type: functional
[5] = biological target: Phosphatidylinositol 4,5-bisphosphate 3-kinase catalytic subunit gamma isoform (Homo sapiens, UniProt P48736); assay: Inhibition of PI3K gamma (unknown origin) using lipid substrate measured after 40 mins in presence of ATP by Kinase-Glo plus reagent based luminescence assay
[6] = biological target: Phosphatidylinositol 4,5-bisphosphate 3-kinase catalytic subunit beta isoform (Homo sapiens, UniProt P42338); assay: Inhibition of PI3K beta (unknown origin) using lipid substrate measured after 40 mins in presence of ATP by Kinase-Glo plus reagent based luminescence assay
HCT-116 [7] = assay: Antitumour activity against human HCT116 cells xenografted in BALB/c nude mouse assessed as tumour weight at 25 mg/kg, po via gavage administered once daily for 15 days and measure every three days by caliper method (reference value: 3.2 +/- 0.32 g); type: functional
HCT-116 [8] = assay: Antitumour activity against human HCT116 cells xenografted in BALB/c nude mouse assessed as tumour growth inhibition at 5 mg/kg, po via gavage administered once daily for 15 days and measure every three days by caliper method relative to control; type: functional; conditions: HCT-116, po, read-out: TGI
HCT-116 [9] = assay: Antitumour activity against human HCT116 cells xenografted in BALB/c nude mouse assessed as tumour growth inhibition at 25 mg/kg, po via gavage administered once daily for 15 days and measure every three days by caliper method relative to control; type: functional; conditions: HCT-116, po, read-out: TGI
HCT-116 [10] = assay: Antitumour activity against human HCT116 cells xenografted in BALB/c nude mouse assessed as tumour volume at 5 mg/kg, po via gavage administered once daily for 15 days and measure every three days by caliper method (reference value: 2769 +/- 536 mm3); type: functional
[11] = biological target: T1, Phosphatidylinositol 4,5-bisphosphate 3-kinase catalytic subunit alpha isoform; assay: Potency index, ratio of 2-methoxy-5-(4-(2-morpholinoethylamino)quinazolin-6-yl)nicotinonitrile IC50 to test compound IC50 for inhibition of PI3K alpha (unknown origin)
HCT-116 [12] = assay: Antitumour activity against human HCT116 cells xenografted in BALB/c nude mouse assessed as tumour volume at 25 mg/kg, po via gavage administered once daily for 15 days and measure every three days by caliper method (reference value: 2769 +/- 536 mm3); type: functional
[13] = Toxicity in BALB/c nude mouse xenografted with human HCT116 cells assessed as effect on body weight at 5 to 25 mg/kg, po via gavage administered once daily for 15 days; type: organism-based; conditions: in vivo, 360 h
[14] = Inhibition of PI3K/AKT/mTOR signaling in human HCT116 cells assessed as decrease in AKT phosphorylation at S473 measured after 5 hrs by Western blot analysis; type: cell-based
[15] = Inhibition of PI3K/AKT/mTOR signaling in human HCT116 cells assessed as decrease in AKT phosphorylation at S473 at 1 uM measured after 5 hrs by Western blot analysis; type: cell-based
Homo sapiens [16] = species on record: Homo sapiens; assay: Selectivity ratio of IC50 for inhibition of PI3K delta (unknown origin) to IC50 for inhibition of PI3K alpha (unknown origin)
Homo sapiens [17] = species on record: Homo sapiens; assay: Selectivity ratio of IC50 for inhibition of PI3K beta (unknown origin) to IC50 for inhibition of PI3K alpha (unknown origin)
Homo sapiens [18] = species on record: Homo sapiens; assay: Selectivity ratio of IC50 for inhibition of PI3K gamma (unknown origin) to IC50 for inhibition of PI3K alpha (unknown origin)

Chain of Phosphatidylinositol 4,5-bisphosphate 3-kinase catalytic subunit beta isoform (P42338 whole entry, canonical isoform): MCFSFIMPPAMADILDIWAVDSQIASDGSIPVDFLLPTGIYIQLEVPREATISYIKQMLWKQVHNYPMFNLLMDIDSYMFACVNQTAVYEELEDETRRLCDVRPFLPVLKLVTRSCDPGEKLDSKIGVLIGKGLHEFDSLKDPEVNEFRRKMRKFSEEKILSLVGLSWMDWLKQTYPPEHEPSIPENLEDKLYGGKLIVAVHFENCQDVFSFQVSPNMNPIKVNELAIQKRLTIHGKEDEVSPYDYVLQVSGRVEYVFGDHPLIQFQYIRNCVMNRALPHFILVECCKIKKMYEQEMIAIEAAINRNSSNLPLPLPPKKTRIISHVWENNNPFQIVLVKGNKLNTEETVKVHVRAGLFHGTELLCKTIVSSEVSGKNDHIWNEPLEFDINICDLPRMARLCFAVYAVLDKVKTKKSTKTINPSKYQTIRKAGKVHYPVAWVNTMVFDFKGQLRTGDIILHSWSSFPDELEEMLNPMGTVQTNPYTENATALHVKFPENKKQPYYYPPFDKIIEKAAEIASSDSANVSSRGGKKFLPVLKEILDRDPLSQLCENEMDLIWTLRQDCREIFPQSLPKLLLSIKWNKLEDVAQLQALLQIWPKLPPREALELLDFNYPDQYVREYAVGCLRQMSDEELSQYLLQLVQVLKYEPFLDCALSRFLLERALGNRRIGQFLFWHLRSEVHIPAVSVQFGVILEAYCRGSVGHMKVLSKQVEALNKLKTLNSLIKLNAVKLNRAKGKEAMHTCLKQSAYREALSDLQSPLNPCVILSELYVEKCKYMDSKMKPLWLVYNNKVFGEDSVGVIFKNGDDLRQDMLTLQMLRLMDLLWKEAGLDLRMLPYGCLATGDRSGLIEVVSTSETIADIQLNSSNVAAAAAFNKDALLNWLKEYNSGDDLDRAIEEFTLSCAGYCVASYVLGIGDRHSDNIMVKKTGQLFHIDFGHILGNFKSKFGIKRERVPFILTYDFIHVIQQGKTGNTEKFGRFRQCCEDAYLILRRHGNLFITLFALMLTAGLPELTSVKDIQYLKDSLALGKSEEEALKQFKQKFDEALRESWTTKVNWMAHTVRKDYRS
T1 sequence (P42336 whole entry, canonical isoform): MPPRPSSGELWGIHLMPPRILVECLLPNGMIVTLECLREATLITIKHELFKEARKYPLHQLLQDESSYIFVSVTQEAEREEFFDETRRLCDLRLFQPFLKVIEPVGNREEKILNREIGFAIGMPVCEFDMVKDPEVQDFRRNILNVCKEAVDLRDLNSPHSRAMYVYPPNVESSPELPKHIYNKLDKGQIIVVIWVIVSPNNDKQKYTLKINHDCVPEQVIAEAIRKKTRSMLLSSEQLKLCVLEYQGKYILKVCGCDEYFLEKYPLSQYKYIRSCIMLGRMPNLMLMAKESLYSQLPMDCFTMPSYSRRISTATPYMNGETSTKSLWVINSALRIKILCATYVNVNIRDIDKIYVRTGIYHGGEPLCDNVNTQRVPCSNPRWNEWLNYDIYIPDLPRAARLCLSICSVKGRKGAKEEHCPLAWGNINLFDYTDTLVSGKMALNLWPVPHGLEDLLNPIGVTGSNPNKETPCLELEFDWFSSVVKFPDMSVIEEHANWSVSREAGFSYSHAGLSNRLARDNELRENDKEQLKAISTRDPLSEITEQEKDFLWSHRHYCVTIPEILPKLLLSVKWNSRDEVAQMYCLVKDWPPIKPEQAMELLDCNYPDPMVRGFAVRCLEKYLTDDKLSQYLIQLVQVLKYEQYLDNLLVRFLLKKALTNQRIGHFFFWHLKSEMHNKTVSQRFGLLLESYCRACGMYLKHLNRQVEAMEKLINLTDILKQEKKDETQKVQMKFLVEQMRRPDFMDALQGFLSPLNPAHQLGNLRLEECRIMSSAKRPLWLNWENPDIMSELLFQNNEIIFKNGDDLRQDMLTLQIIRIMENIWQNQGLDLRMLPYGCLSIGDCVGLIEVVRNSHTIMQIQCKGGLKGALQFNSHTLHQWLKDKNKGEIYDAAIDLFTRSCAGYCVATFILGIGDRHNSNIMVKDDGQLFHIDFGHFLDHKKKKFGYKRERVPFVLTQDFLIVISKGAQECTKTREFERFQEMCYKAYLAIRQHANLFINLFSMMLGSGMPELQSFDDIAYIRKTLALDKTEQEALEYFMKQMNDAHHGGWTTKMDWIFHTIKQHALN
Chain of Phosphatidylinositol 4,5-bisphosphate 3-kinase catalytic subunit gamma isoform (P48736 whole entry, canonical isoform): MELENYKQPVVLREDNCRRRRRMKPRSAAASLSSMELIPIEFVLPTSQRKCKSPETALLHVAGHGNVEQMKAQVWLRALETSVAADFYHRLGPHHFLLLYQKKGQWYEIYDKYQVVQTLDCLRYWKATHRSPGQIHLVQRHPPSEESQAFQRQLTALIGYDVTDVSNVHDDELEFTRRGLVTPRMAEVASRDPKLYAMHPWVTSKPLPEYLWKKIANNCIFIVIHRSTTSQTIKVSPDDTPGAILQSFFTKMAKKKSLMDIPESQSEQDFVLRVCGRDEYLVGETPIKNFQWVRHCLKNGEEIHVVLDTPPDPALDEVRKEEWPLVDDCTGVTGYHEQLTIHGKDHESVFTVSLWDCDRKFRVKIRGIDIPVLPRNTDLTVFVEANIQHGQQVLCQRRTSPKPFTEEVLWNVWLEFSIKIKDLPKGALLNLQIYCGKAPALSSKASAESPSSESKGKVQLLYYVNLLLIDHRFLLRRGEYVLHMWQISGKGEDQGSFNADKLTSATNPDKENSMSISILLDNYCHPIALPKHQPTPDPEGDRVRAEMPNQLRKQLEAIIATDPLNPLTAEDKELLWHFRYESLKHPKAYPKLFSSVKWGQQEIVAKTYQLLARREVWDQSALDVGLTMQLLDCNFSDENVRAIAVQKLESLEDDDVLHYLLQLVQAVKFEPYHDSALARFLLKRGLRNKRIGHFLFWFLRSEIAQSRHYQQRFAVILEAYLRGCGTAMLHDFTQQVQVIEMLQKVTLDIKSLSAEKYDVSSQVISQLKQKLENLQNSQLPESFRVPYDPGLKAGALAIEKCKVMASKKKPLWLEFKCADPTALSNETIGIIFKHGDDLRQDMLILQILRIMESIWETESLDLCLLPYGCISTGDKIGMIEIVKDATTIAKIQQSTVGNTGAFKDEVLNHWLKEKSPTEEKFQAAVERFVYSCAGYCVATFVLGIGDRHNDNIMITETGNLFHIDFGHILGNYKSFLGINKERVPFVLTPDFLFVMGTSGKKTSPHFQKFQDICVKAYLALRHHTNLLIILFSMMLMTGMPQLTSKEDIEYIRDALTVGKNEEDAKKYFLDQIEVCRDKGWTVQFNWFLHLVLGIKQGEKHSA

Compound | IC50 [1] | IC50 (MCF7) | IC50 (SU-DHL-6) | IC50 (HCT-116 [2]) | also measured
COc1ncc(-c2ccc3ncnc(N[C@H]4CCN(C(=O)OC(C)(C)C)C4)c3c2)cc1NS(C)(=O)=O | 5.3 nM | 870 nM | 170 nM | 250 nM | –
COc1ncc(-c2ccc3ncnc(NCCN4CCOCC4)c3c2)cc1NS(C)(=O)=O | 4.5 nM | 990 nM | 190 nM | 820 nM | IC50 [3]: 2.2 nM; Activity (HCT-116 [4]): 2 g; IC50 [5]: 6 nM; IC50 [6]: 16 nM; Activity (HCT-116 [7]): 1.6 g; inhibition in vivo at 5 mg/kg (HCT-116 [8]): 53%; inhibition in vivo at 25 mg/kg (HCT-116 [9]): 62%; Activity (HCT-116 [10]): 1299 mm3; Ratio IC50 [11]: 100; Activity (HCT-116 [12]): 992 mm3; Activity [13]: Non-Toxic; inhibition [14]: Dose-dependent effect
Cn1c(=O)n(-c2ccc(C(C)(C)C#N)cc2)c2c3cc(-c4cnc5ccccc5c4)ccc3ncc21 [DACTOLISIB] | – | 350 nM | 70 nM | 370 nM | inhibition [15]: Active
COc1ncc(-c2ccc3ncnc(N(C)CCN(C)C)c3c2)cc1NS(C)(=O)=O | 7.7 nM | 4700 nM | 1700 nM | 5100 nM | –
COc1ncc(-c2ccc3ncnc(NC4CCN(C(C)=O)CC4)c3c2)cc1NS(C)(=O)=O | 0.4 nM | 16000 nM | 4300 nM | 720 nM | –
COc1ncc(-c2ccc3ncnc(NCCN4CCCCC4)c3c2)cc1NS(C)(=O)=O | 12 nM | 3700 nM | 320 nM | 1600 nM | –
COc1ncc(-c2ccc3ncnc(NCCN(C)C)c3c2)cc1NS(C)(=O)=O | 7 nM | 10000 nM | 1700 nM | 8700 nM | –
COc1ncc(-c2ccc3ncnc(N[C@H]4CCN(C(=O)C(C)(C)C)C4)c3c2)cc1NS(C)(=O)=O | 2.6 nM | 590 nM | 7600 nM | 2000 nM | –
COc1ncc(-c2ccc3ncnc(NCCN4CCOCC4)c3c2)cc1NS(=O)(=O)C1CC1 | 7.1 nM | 1500 nM | 330 nM | 1900 nM | –
COc1ncc(-c2ccc3ncnc(N[C@H]4CCN(C(=O)C5CC5)C4)c3c2)cc1NS(C)(=O)=O | 1 nM | 3700 nM | 3000 nM | 1000 nM | –
COc1ncc(-c2ccc3ncnc(NC4CCNCC4)c3c2)cc1NS(C)(=O)=O | 0.9 nM | 11000 nM | ≥ 100000 nM | 1300 nM | –
COc1ncc(-c2ccc3ncnc(NC4CCN(C(=O)C5CCOCC5)CC4)c3c2)cc1NS(C)(=O)=O | 2.1 nM | 6000 nM | ≥ 100000 nM | 2900 nM | –
COc1ncc(-c2ccc3ncnc(N[C@H]4CCN(C(C)=O)C4)c3c2)cc1NS(C)(=O)=O | 0.5 nM | 14000 nM | ≥ 100000 nM | 290 nM | IC50 [3]: 6.8 nM; IC50 [5]: 4.3 nM; IC50 [6]: 5 nM; Ratio IC50 (Homo sapiens [16]): 10; Ratio IC50 (Homo sapiens [17]): 10; Ratio IC50 (Homo sapiens [18]): 10
COc1ncc(-c2ccc3ncnc(N[C@H]4CCN(C(=O)C5CCOCC5)C4)c3c2)cc1NS(C)(=O)=O | 0.7 nM | 4800 nM | 1500 nM | 1700 nM | IC50 [3]: 7.4 nM; IC50 [5]: 6.5 nM; IC50 [6]: 5.6 nM; Ratio IC50 (Homo sapiens [16]): 10; Ratio IC50 (Homo sapiens [17]): 10; Ratio IC50 (Homo sapiens [18]): 10
COc1ncc(-c2ccc3ncnc(NC4CCN(C(=O)C5CCCC5)CC4)c3c2)cc1NS(C)(=O)=O | 2.8 nM | 7900 nM | 3300 nM | 2800 nM | –
COc1ncc(-c2ccc3ncnc(NCCN4CCCCC4)c3c2)cc1NS(=O)(=O)C1CC1 | 34 nM | 3200 nM | 410 nM | 5800 nM | –
COc1ncc(-c2ccc3ncnc(NC4CCN(C(=O)OC(C)(C)C)CC4)c3c2)cc1NS(C)(=O)=O | 7 nM | 15000 nM | 9700 nM | 1800 nM | –
COc1ncc(-c2ccc3ncnc(N[C@H]4CCN(C(=O)C5CCCC5)C4)c3c2)cc1NS(C)(=O)=O | 2.3 nM | 2500 nM | 770 nM | 2100 nM | –
COc1ncc(-c2ccc3nccc(NCCN4CCOCC4)c3c2)cc1NS(C)(=O)=O | 106 nM | 88000 nM | ≥ 100000 nM | 29000 nM | –
